The values below come from PMC12051620, “Molecular basis underlying the specificity of an antagonist AA92593 for mammalian melanopsins” (The Journal of Biological Chemistry, 2025).

One experiment deals with T1, mouse melanopsin (Mus musculus, UniProt Q9QXZ9).
T1 construct: the C-terminal amino acid residues (94, 140, 200, 214, 296, and 308 residues); expressed in transfected cells; host or cells: COS-1
Put plainly: GsX GloSensor assay with Gsα/i11. It counts as cell-based. Particulars: 16.7 μM AA92593; COS-1 cells. From the text:
Previous studies of human and mouse melanopsins reported that these melanopsins can activate not only Gq but Gs and Gi ([20], [21], [22]). Thus, we assessed the effect of AA92593 on Gsα WT or Gsα/i11 (with 11 C-terminal sequence of Giα) using the GsX GloSensor assay. In agreement with the promiscuous G protein-coupling of melanopsins, we observed light-dependent increase of GloSensor luminescence in COS-1 cells expressing Gsα or Gsα/i11 with human/mouse melanopsins (Fig. 1, G–J).
For GloSensor assay, opsins, GloSensor assay sensor (coded by pGlo-22F), and NanoBiT-tagged G proteins were transiently expressed in COS-1 cells (kindly provided from Dr David Farrens, Oregon Health and Science University) using PEI as described previously ([24], [52]). […] For GFP-fluorescence microscopy, a 35-mm cell culture dish (IWAKI) was transfected with 2 μg melanopsin-GFP plasmid and 8 μg PEI in 400 μl Opti-mem and 1.2 ml D-MEM. […]
The transfected COS-1 cells were incubated at 37 °C, 5% CO2 for 2 days, and the medium was aspirated and exchanged with 50 μl of HBSS (145 mM NaCl, 10 mM D-glucose, 5 mM KCl, 1 mM MgCl2, 1.7 mM CaCl2, 1.5 mM NaHCO3, 10 mM Hepes, pH 7.4), containing 33.3, 20, 10, 2, 0.2, 0.02, 0.002, or 0 μM AA92593, 0.5% dimetyl sulfoxide (DMSO), and 4% (vol/vol) GloSensor cAMP reagent stock solution. […] Luminescence was measured using GM-2000 or GM-3510 microplate reader (Promega). […]

Experiment [1] deals with mouse melanopsin S269^6.52A mutant. Description: GsX GloSensor assay with Gsα/q11. The class given is cell-based. Conditions: 16.7 μM AA92593, COS-1 cells.

The structures appear in SMILES notation.

T1 sequence (Q9QXZ9 1-381 limits assumed): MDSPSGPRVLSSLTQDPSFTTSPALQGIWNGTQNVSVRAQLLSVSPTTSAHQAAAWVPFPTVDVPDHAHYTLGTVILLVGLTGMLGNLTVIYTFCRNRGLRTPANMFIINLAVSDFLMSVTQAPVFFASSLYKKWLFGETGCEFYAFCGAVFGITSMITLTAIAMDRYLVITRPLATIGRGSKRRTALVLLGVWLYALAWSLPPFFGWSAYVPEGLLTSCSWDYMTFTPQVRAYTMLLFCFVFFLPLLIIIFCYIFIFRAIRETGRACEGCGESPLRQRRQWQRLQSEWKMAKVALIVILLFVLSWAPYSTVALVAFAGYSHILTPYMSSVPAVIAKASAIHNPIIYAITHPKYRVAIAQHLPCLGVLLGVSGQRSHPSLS

For the compound `COc1ccc(S(=O)(=O)N2CCCCC2)cc1C` [AA92593], the “effect on melanopsin-induced cAMP responses via Gsα/i11” value on mouse melanopsin is recorded as “can suppress”. The “reduction of the antagonistic effect of AA92593 vs WT” value in experiment [1] is approximately 25%.
